# Results from US8278074B2, “L-glutamic acid-producing microorganism and a method for producing L-glutamic acid” (priority 2004, dated 2012).
# Tests used:
# Assay type in all cases: cell-based, Corynebacterium glutamicum
# [1] = system: mutant-type yggB gene-introduced strains (ATCC13869-L30 strain, ATCC13869-A1 strain); assay: Resistance to 4-fluoroglutamic acid on a solid medium; details: minimum plate medium, 7.5 mM 4-fluoroglutamic acid, 31.5° C., compared with wild-type ATCC13869 strain (FIG. 6)
# Experimental: 4-fluoroglutamic acid solution which was adjusted to pH6.7 with NaOH and sterilized with filtration was added to the minimum medium described in Example 4 so that the final concentration of 4-fluoroglutamic acid was 7.5 mM. Each of the ATCC13869 strain, ATCC13869-L30 strain, and ATCC13869-A1 strain was spread over the CM-Dex plate and cultured overnight.
# [2] = system: ATCC13869-A1 strain; assay: Resistance to 4-fluoroglutamic acid in a liquid medium; details: minimum liquid medium, 1.25 mM to 20 mM 4-fluoroglutamic acid, 31.5° C., culture without 4-fluoroglutamic acid set to 1 (FIG. 7)
# Experimental: (§1) 4-fluoroglutamic acid was added into the minimum liquid medium having the same composition as described in Example 4 but not containing agar to the final concentration of 1.25 mM, 2.5 mM, 5 mM, 10 mM, and 20 mM, respectively. Each of the ATCC13869 strain, ATCC13869ΔyggB strain, ATCC13869-L30 strain, and ATCC13869-A1 strain was spread over a CM-Dex plate and cultured at 31.5° C. overnight. Then, cells were collected, and after washing with the sterilized 0.85% NaCl solution, inoculated into the liquid medium and cultured at 31.5° C. with shaking. When the OD660 of each strain cultured without 4-fluoroglutamic acid reached 1.0, the culture was terminated and the obtained culture solution was diluted appropriately and spread over the CM-Dex plate overnight. The number of colonies which appeared were calculated and designated as a viable cell number.
# [3] = system: ATCC13869-L30 strain; assay: as above; details: minimum liquid medium, 1.25 mM to 20 mM 4-fluoroglutamic acid, 31.5° C., culture without 4-fluoroglutamic acid set to 1 (FIG. 7)
# Experimental: as §1
smiles,measurement,setting,value
N[C@@H](CC(F)C(=O)O)C(=O)O (stereo partly drawn) [4-fluoroglutamic acid],growth in the presence of 4-fluoroglutamic acid,[1],grow faster than wild-type ATCC13869 strain
same,sensitivity to 4-fluoroglutamic acid (relative viable cell number),[2],decreased sensitivity
same,sensitivity to 4-fluoroglutamic acid (relative viable cell number),[3],decreased sensitivity
